US20170107203A1, “HETEROCYCLIC INHIBITORS OF THE SODIUM CHANNEL” (EPIRUS BIOPHARMACEUTICALS, INC., priority 2014, published 2017)

What was measured:
hNav1.7 [1] = target: T1, hNav1.7 (Homo sapiens, UniProt Q15858); assay: Nav1.7 potency, Patchliner automated patch clamp; format: cell-based; conditions: automated patchclamp
T1 construct: expressed in transfected cells
Protocol: (§1) The generation of a HEK 293F cell line stably expressing human Nav1.7/Navp1 was achieved by co-transfecting human SCN9A and human SCN1B cDNAs, subcloned into plasmid vectors, utilizing standard transfection techniques. Clones were selected using appropriate selection agents (0.3 mg/mL Zeocin and 0.8 mg/mL Geneticin) and maintained in Dulbecco's Modified Eagle medium, 10% fetal bovine serum, 1% non-essential amino acids to ˜80% confluence at 37° C. in a humidified incubator with 95% atmosphere and 5% CO2.
(§2) In some cases, the potency of compounds was measured using either the Patchliner automated patch clamp platform (Nanion) or manual patch clamp techniques. Both approaches allowed the compounds to be characterized based upon the ability of a compound to modulate use- and/or state-dependence. The potency data is tabulated in Table 3 and is represented by eight data fields. The first four fields represent potency data measured with the Patchliner automated platform under varying use- and state-dependent electrophysiology protocols similar to the Patch express protocols detailed above. The first data column describes the potency of compounds when the Nav1.7 channel is being repetitively activated at a 7 Hz hyperpolarization frequency (Table 3: hNav1.7: IC50 of inward current block at 7 Hz, Automated patchclamp). The second data column represents the potency at which 50% of the initial hyperpolarization pulse is inhibited by the compounds (Table 3: hNav1.7: IC50 of P1 block, Automated patchclamp). The third data column details the potency of compounds in their ability to block 50% of Nav1.7 channels when these channels are induced into the slow inactivated state (Table 3: hNav1.7: IC50 of slow inactivation block, Automated patchclamp). […] The next three data fields describe the data generated from manual patchclamp electrophysiology measurements using similar methods to those employed for automated patchclamp studies. […] The last column characterizes the state-dependence of compound inhibition. Compounds that maintain the greatest potency for the slow inactivated state over fast inactivated or tonic inhibition at 0.25 Hz are characterized as “state dependent, blocker of slow inactivation”.

human Nav1.7 = target: T2, human Nav1.7 (Homo sapiens, UniProt Q15858); assay: Assessment of Nav1.7 activity on PatchXpress (voltage dependence / slow inactivation parameters); format: cell-based; conditions: compound at 10 μM, relative to 0.2% DMSO vehicle control; for hNav1.7: Reduction in current at 20 mV (normalized data) Delta Ratio: before/after 30 sec conditioning pulse at 20 mV; for hNav1.7: Shift in voltage dependence of inactivation (mV) Delta Vhalf: PatchXpress
T2 construct: expressed in transfected cells
Method in brief: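 HEK293F cells stably co-expressing hNav1.7 and β1 were recorded by automated patch clamp in TEA-based external solution (50 mM NaCl, pH 7.4) with CsF internal solution (pH 7.2). A variable conditioning prepulse inactivated channels, followed by a brief hyperpolarizing step and a depolarizing test pulse. Compounds at 10 μM were compared with 0.2% DMSO vehicle across four parameters.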

hNav1.7 [2] = target: T1, hNav1.7; assay: Nav1.7 potency, manual patch clamp; format: cell-based; conditions: manual patchclamp
Protocol: as §1, §2

male Sprague-Dawley rat = assay: Formalin test in rats (automated flinch detection); format: in vivo; conditions: 100 mg/kg SC 1 hour prior to formalin
Protocol: The formalin test in rats was performed as previously described (McNamara, 2007. Proc. Natl. Acad. Sci., vol 104, page 13525) using an automated flinch-detecting system (T. Yaksh, University of California at San Diego, La Jolla, Calif.). On the day of testing, a small metal band (0.5 g) was loosely placed around the right hind paw of a male Sprague-Dawley rat (average weight, ˜250 g). The rats were allowed to acclimate to a Plexiglas chamber for at least 30 min before testing. Formalin was then injected (50 μl of 2.5% formalin, diluted in saline) into the dorsal surface of the right hind paw of the rat, and the animal was put into a chamber of the automated formalin apparatus where movement of the formalin-injected paw was recorded. The number of paw flinches per minute was tallied for the next 60 minutes. The time interval phases were defined as follows: Phase I (0-9 mins), Phase II (10-60 mins), Phase IIA (10-40 mins), and Phase IIB (41-60 mins). The following compounds were administered 1 hour prior to formalin administration. Compound 52 from Table 1 was administered by oral gavage in 4% DMSO, 10% Solutol, 86% H2O. Gabapentin was administered subcutaneously in 0.9% NaCl (aq).

[3] = initial pulse (P1), read-out: Nav1.7 IC50 P1 BLOCK (nM) (Automated Patchclamp)
[4] = slow inactivated state, read-out: Nav1.7 IC50 SLOW INACTIVATION BLOCK (nM) (Automated Patchclamp)
[5] = slow inactivated state, read-out: Nav1.7 IC50 SLOW INACTIVATION BLOCK (nM) (Manual Patchclamp)
[6] = 7 Hz, read-out: Nav1.7 IC50 INWARD CURRENT BLOCK (nM) (7 Hz, Automated Patchclamp)

T2 sequence (Q15858 whole entry): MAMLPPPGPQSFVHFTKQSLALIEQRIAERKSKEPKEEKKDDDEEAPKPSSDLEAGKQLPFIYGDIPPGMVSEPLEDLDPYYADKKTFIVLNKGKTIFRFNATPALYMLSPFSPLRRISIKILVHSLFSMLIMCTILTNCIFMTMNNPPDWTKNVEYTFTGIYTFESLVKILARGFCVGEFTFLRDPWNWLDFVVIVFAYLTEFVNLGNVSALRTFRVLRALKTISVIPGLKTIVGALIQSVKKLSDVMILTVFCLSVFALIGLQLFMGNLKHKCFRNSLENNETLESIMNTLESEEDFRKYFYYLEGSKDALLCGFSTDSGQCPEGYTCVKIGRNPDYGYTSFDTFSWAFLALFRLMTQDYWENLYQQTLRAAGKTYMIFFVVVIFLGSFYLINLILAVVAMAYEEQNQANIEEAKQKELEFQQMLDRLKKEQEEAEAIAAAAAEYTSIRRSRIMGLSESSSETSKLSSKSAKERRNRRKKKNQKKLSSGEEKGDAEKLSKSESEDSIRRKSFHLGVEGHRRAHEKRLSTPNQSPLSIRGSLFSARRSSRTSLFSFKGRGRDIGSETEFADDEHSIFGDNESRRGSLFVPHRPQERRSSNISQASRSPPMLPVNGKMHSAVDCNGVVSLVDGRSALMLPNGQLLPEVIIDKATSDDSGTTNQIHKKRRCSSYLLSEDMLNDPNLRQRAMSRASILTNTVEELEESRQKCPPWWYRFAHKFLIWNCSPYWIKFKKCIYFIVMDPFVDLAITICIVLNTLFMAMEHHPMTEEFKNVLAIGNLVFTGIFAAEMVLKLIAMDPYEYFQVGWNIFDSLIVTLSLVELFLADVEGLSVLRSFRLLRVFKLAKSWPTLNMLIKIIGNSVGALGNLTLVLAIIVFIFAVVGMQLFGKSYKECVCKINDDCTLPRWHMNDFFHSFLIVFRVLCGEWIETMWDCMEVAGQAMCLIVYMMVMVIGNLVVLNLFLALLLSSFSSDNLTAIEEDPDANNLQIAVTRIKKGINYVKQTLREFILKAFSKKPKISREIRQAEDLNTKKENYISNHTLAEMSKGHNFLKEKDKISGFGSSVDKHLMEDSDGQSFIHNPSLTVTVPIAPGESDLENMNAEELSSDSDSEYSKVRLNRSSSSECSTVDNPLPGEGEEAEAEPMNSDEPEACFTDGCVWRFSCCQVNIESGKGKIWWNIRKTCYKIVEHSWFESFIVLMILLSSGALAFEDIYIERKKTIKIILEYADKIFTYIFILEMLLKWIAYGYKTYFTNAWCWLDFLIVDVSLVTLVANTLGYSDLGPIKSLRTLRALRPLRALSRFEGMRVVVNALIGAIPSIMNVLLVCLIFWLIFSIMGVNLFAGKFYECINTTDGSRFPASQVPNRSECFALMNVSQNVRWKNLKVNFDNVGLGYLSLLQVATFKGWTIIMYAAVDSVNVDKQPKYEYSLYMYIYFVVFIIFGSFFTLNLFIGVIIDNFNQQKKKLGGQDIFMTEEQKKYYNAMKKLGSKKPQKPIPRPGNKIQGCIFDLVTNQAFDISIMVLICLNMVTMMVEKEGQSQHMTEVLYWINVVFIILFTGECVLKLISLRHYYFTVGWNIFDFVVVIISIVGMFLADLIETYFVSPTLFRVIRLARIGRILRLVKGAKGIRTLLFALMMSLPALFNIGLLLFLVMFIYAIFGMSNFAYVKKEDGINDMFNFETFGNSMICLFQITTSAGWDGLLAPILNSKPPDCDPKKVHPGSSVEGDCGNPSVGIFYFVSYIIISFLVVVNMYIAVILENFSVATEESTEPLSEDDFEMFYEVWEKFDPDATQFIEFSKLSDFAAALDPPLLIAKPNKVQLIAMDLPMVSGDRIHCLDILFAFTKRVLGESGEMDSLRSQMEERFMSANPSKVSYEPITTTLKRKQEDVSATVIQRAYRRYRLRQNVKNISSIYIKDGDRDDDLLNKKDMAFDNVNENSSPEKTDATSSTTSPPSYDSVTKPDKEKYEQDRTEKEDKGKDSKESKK
T2 sequence (Q07699 19-218 partner): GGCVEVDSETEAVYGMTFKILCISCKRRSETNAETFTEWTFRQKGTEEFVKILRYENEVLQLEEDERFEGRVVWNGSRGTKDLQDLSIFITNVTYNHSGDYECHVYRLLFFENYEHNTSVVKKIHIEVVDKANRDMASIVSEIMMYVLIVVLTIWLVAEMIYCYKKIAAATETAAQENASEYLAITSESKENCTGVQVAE
T1 sequence (Q15858 whole entry): as the sequence (Q15858 whole entry) above
T1 sequence (Q07699 19-218 partner): as the sequence (Q07699 19-218 partner) above

SMILES	IC50 (hNav1.7 [1]; [3]) [nM]	IC50 (hNav1.7 [1]; [4]) [nM]	hNav1.7: Reduction in current at 20 mV (normalized data) Delta Ratio (human Nav1.7)	hNav1.7: Voltage dependence of activation (mV) VDEP (human Nav1.7) [mV]	hNav1.7: Voltage dependence of fast inactivation (mV) VDEP (human Nav1.7) [mV]	hNav1.7: Shift in voltage dependence of inactivation (mV) Delta Vhalf (human Nav1.7) [mV]	IC50 (hNav1.7 [2]; [5]) [nM]	IC50 (hNav1.7 [1]; [6]) [nM]	IC50 (hNav1.7 [1]; 0.25 Hz, read-out: Nav1.7 IC50 INWARD CURRENT BLOCK (nM) (0.25 Hz, Automated Patchclamp))	IC50 (hNav1.7 [2]; 7 Hz, read-out: Nav1.7 IC50 INWARD CURRENT BLOCK (nM) (7 Hz, Manual Patchclamp))	Phase 1 (paw flinches) (male Sprague-Dawley rat; Phase I (0-9 mins))	Total Phase 2 (paw flinches) (male Sprague-Dawley rat; Phase II (10-60 mins))	Phase 2a (paw flinches) (male Sprague-Dawley rat; Phase IIA (10-40 mins))	Phase 2b (paw flinches) (male Sprague-Dawley rat; Phase IIB (41-60 mins))
CC(C)C[C@@H](N)C(=O)N[C@@H](C)COc1cc(C(F)(F)F)cc(C(F)(F)F)c1 [Compound 1, (R)-2-amino-N-((S)-1-(3,5-bis(trifluoromethyl)phenoxy)propan-2-yl)-4-methylpentanamide]	15500	2580	−0.30	−8.60	−6.80	−20.90	568							
CC(C)C[C@@H](N)C(=O)NC(C)COc1cc(C(F)(F)F)cc(C(F)(F)F)c1 (stereo partly drawn) [Compound 6, (2R)-2-amino-N-(1-(3,5-bis(trifluoromethyl)phenoxy)propan-2-yl)-4-methylpentanamide]	12700	2770	−0.25	−4.80	−6.20	−32.70		1660						
CC(C)CC(N)C(=O)N[C@@H](C)COc1cc(C(F)(F)F)cc(C(F)(F)F)c1 (stereo partly drawn) [Compound 10, 2-amino-N-((S)-1-(3,5-bis(trifluoromethyl)phenoxy)propan-2-yl)-4-methylpentanamide]	11500	4120	−0.20	−3.70	−3.50	−31.40		1890						
CN[C@H](CC(C)C)C(=O)NCCOc1cc(F)cc(C(F)(F)F)c1 [Compound 16, (R)-N-(2-(3-fluoro-5-(trifluoromethyl)phenoxy)ethyl)-4-methyl-2-(methylamino)pentanamide]		8120	−0.11	−2.80	−2.60	−14.70	3500	9620	15000	23200				
CC(C)C[C@@H](N)C(=O)NC(COc1cc(C(F)(F)F)cc(C(F)(F)F)c1)c1ccccc1 (stereo partly drawn) [Compound 38, (2R)-2-amino-N-(2-(3,5-bis(trifluoromethyl)phenoxy)-1-phenylethyl)-4-methylpentanamide]	10300	5320	−0.34	−11.5	−15.3	−33.7	436							
N[C@@H](c1ccc(Cl)cc1)c1nc2cc(C(F)(F)F)cc(C(F)(F)F)c2[nH]1 [Compound 54, (S)-(4,6-bis(trifluoromethyl)-1H-benzo[d]imidazol-2-yl)(4-chlorophenyl)methanamine]		2890	−0.26	−10	−8.6	−27.4	312							
NCC1(CC(=O)O)CCCCC1 [Gabapentin]											320 ± 58	562 ± 213	486 ± 202	77 ± 47
